“Also recorded” adds a separate entry of the source. Ends that are not written are not given here. Peptide text beside a SMILES is read from it.
Legend:
CRHR1 and CRHR2 = details: cited from earlier work
Source text: It has been well-documented that the roles of CRH-related peptides are mediated by two G protein-coupled receptors, namely CRH receptor 1 (CRHR1) and CRH receptor 2 (CRHR2), which share ~68% amino acid identity with each other ([6], [21], [23]). However, these neuropeptides have distinct preference for these two receptors.

chicken CRHR1 (cCRHR1) = target: T1, chicken CRHR1 (cCRHR1) (Gallus gallus, UniProt Q90812); assay: pGL3-CRE-luciferase reporter assay in CHO cells expressing cCRHR1; assay type: cell-based; details: CHO cells transiently expressing cCRHR1; peptide 10^−12-10^−6M, 6 h; luciferase as fold of untreated control; N = 3 replicates
T1 construct: expressed in transfected cells; host or cells: CHO cells, transient transfection (the control used the empty pcDNA3.1(+) vector)
T1 sequence (Q90812 29-420): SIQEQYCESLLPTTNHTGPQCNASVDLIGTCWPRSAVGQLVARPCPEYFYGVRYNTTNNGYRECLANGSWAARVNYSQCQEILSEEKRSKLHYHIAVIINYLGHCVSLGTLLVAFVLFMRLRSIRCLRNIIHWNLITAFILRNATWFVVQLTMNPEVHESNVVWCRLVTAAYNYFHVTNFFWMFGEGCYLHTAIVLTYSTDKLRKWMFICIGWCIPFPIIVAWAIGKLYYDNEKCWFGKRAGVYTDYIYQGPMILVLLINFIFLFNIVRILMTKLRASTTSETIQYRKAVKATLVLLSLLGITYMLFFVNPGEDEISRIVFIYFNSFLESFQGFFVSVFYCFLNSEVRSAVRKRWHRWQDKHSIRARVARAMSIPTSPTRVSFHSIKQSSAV
Description: CHO cells were cultured in Dulbecco's Modified Eagle's Medium (DMEM) supplemented with 10% (vol/vol) fetal bovine serum, 100 U/ml penicillin G, and 100 µg/ml streptomycin (HyClone) in a 100 mm dish (Corning) and incubated at 37°C with 5% CO2. As described in our previous study ([35]), the functionality of cCRH2 was examined in CHO cells transiently expressing CRHR1 or CRHR2 by the pGL3-CRE-luciferase reporter system, which was utilized to monitor receptor-mediated activation of the intracellular cAMP/PKA signaling pathway. The luciferase activities in each treatment group were expressed as relative fold increase as compared with that of respective control groups (i.e., without peptide treatment).

pituitary [1] = details: cited from earlier work
Source text: However, UCN1 expression could not be detected in the hypothalamus and pituitary stalk ([10], [11]), and the selective receptors for UCN2 and UCN3 were not detected in the pituitary ([12]–[14]), hinting that the actions of ...

pituitary [2] = details: cited from earlier work; remark: listed apart in the source
Source text: (§1) The relatively high potency of cCRH2 in activating cCRHR2 led us to examine whether like cCRH, cCRH2 can stimulate TSH expression in the chicken pituitary (Figure 8). […] Our finding raises a new concept that apart from CRH, TRH and GCG-like peptide (GCGL) [which are re ...

chicken pituitary = details: cited from earlier work
Source text: as §1

Molecule: urocortin II (IVLSLDVPIGLLQILLEQARARAAREQATTNARILARVGHC; Urocortin-2; UniProt Q96RP3 72-112, looked up) [UCN2, CRH family peptide urocortin II]
- affinity/selectivity for CRHR1 and CRHR2 (in words) (CRHR1 and CRHR2): highly selective for CRHR2

Molecule: CC[C@H](C)[C@H](NC(=O)[C@@H](NC(=O)[C@H](CCC(=O)O)NC(=O)[C@H](CCSC)NC(=O)[C@H](CC(C)C)NC(=O)[C@H](CCCCN)NC(=O)[C@H](CCCNC(=N)N)NC(=O)[C@H](CC(N)=O)NC(=O)[C@H](CO)NC(=O)[C@H](Cc1c[nH]cn1)NC(=O)[C@H](C)NC(=O)[C@H](CCC(N)=O)NC(=O)[C@H](CCC(N)=O)NC(=O)[C@H](C)NC(=O)[C@H](CC(C)C)NC(=O)[C@H](CCC(N)=O)NC(=O)[C@H](CCC(=O)O)NC(=O)[C@H](C)NC(=O)[C@H](CCCNC(=N)N)NC(=O)[C@H](C)NC(=O)[C@H](CCSC)NC(=O)[C@H](CCC(=O)O)NC(=O)[C@H](CC(C)C)NC(=O)[C@@H](NC(=O)[C@H](CCC(=O)O)NC(=O)[C@H](CCCNC(=N)N)NC(=O)[C@H](CC(C)C)NC(=O)[C@H](CC(C)C)NC(=O)[C@H](Cc1c[nH]cn1)NC(=O)[C@H](Cc1ccccc1)NC(=O)[C@@H](NC(=O)[C@H](CC(C)C)NC(=O)[C@H](CC(=O)O)NC(=O)[C@H](CC(C)C)NC(=O)[C@H](CO)NC(=O)[C@@H](NC(=O)[C@@H]1CCCN1C(=O)[C@@H]1CCCN1C(=O)[C@H](CCC(=O)O)NC(=O)[C@H](CCC(=O)O)NC(=O)[C@@H](N)CO)[C@@H](C)CC)[C@@H](C)O)C(C)C)[C@@H](C)CC)C(N)=O [cCRH]
- EC50 (chicken CRHR1 (cCRHR1)): 0.3 nM

Molecule: corticotropin-releasing hormone [CRH]
- activation of both CRH receptors in chickens (in words) (CRHR1 and CRHR2): equipotent activation of both receptors; also recorded: equipotent in activating both receptors
- affinity for CRHR1 versus CRHR2 (in words) (CRHR1 and CRHR2; mammals, Xenopus and zebrafish): higher affinity to CRHR1 than to CRHR2
- ACTH secretion and synthesis from the pituitary (in words) (pituitary [1]): stimulates adrenocorticotropic hormone (ACTH) secretion and synthesis from the pituitary
- pituitary TSH secretion and/or expression (in words) (pituitary [2]; non-mammalian vertebrates, including birds, amphibians and reptiles): elevate pituitary thyroid stimulating hormone (TSH) secretion and/or expression
- pituitary TSH secretion and synthesis (in words) (pituitary [2]; some non-mammalian vertebrates including chickens): responsible for stimulating pituitary TSH secretion and synthesis

Molecule: CC[C@H](C)[C@H](NC(=O)[C@H](CO)NC(=O)[C@H](CCC(N)=O)NC(=O)[C@H](CC(C)C)NC(=O)[C@H](CC(C)C)NC(=O)[C@H](CC(C)C)NC(=O)[C@H](CCCCN)NC(=O)[C@H](CC(N)=O)NC(=O)[C@H](CO)NC(=O)[C@H](CC(C)C)NC(=O)[C@H](C)NC(=O)[C@H](CCCCN)NC(=O)[C@H](CCC(N)=O)NC(=O)[C@H](C)NC(=O)[C@H](CC(C)C)NC(=O)[C@H](CCCNC(=N)N)NC(=O)[C@H](CCC(=O)O)NC(=O)[C@H](CCC(=O)O)NC(=O)[C@H](CCCNC(=N)N)NC(=O)[C@H](CO)NC(=O)[C@H](CCSC)NC(=O)[C@H](CCC(=O)O)NC(=O)[C@H](CC(C)C)NC(=O)[C@H](Cc1ccccc1)NC(=O)[C@H](CCC(=O)O)NC(=O)[C@H](CCCNC(=N)N)NC(=O)[C@H](CC(C)C)NC(=O)[C@H](CC(C)C)NC(=O)[C@H](Cc1c[nH]cn1)NC(=O)[C@H](Cc1ccccc1)NC(=O)[C@@H](NC(=O)[C@H](CC(C)C)NC(=O)[C@H](CC(=O)O)NC(=O)[C@H](CC(C)C)NC(=O)[C@H](CO)NC(=O)[C@H](CC(N)=O)NC(=O)[C@@H]1CCCN1C(=O)[C@H](CCCCN)NC(=O)CNC(=O)[C@@H](N)CCC(=O)O)[C@@H](C)O)C(N)=O [cCRH2] (H-EGKPNSLDLTFHLLREFLEMSREERLAQKALSNKLLLQSI-NH2)
- EC50 (chicken CRHR1 (cCRHR1)): 28.6 nM

Molecule: urocortin I (DNPSLSIDLTFHLLRTLLELARTQSQRERAEQNRIIFDSV; ends and bridges not checked; UniProt P55089 83-122, looked up) [UCN1, CRH family peptide urocortin I]
- affinity/selectivity for CRHR1 and CRHR2 (in words) (CRHR1 and CRHR2): binds to them with similar affinities
- ACTH-releasing activity in vitro (in words) (pituitary [1]; in vitro): potent ACTH-releasing activity in vitro

Molecule: GCG-like peptide [GCGL]
- chicken pituitary TSH expression/secretion (in words) (chicken pituitary): reported to stimulate chicken pituitary TSH expression/secretion

Molecule: urocortin III (FTLSLDVPTNIMNLLFNIAKAKNLRAQAAANAHLMAQI; ends and bridges not checked; UniProt Q969E3 120-157, looked up) [UCN3, CRH family peptide urocortin III]
- affinity/selectivity for CRHR1 and CRHR2 (in words) (CRHR1 and CRHR2): highly selective for CRHR2

Source: PMC6727040, “Identification of a Novel Functional Corticotropin-Releasing Hormone (CRH2) in Chickens and Its Roles in Stimulating Pituitary TSHβ Expression and ACTH Secretion” (Frontiers in Endocrinology, 2019)
